Consider three molecules from patent US5272169A, “(N-benzyl) acetaldehyde bicyclic heterocycles useful as topical antiinflammatories” (The DuPont Merck Pharmaceutical Company, priority 1993, dated 1993).

The experiment concerns TPA-induced edema in murine skin. As to the kind of experiment: TPA-induced edema in murine skin (mouse ear), topical anti-inflammatory activity. Format: in vivo, mouse (male CF-1). As to conditions: TPA 1 μg/ear, compound topically in acetone at 100 ug/ear just prior to TPA, 4 h after TPA, 6 mm punch biopsy weight. The method, then:
Anti-inflammatory activities of the investigational compounds were studied in murine skin using the following protocol. Edema was induced by tetradecanoyl phorbol acteate (TPA) (1 μg/ear) [Marks, F., Furstenberger, G., Kownatzki, E., Prostaglandin E Mediated Stimulation of Mouse Epidermis in vivo by Divalent Cation Ionophore A23187 and by Tumor Promotor TPA, Cancer Res. 1981, 41:696-702]. Male CF-1 (Charles River) […] were used. Investigational compounds (in acetone at 100 ug/ear) were applied to one ear just prior to application of the inflammagen. Four hours after TPA application, edema was determined by comparing the weights of 6 mm punch biopsies from control (solvent) and inflammagen-treated ears. Percent inhibitions were calculated using standard equations.

The % Inhibition is the share of the control response that was lost under treatment. A lower % Inhibition goes with little suppression. Turning to `O=CCc1ccc(Cn2ncc3ccccc32)cc1` [Example 2 (Part D), 4-(indazol-1'-ylmethyl)phenylacetaldehyde], the “% Inhibition” value was 98%.

Consider `O=CCc1ccc(Cn2cnc3ccccc32)cc1` [Example 1 (Part D), 4-(benzimidazol-1'-ylmethyl)phenylacetaldehyde], for which the “% Inhibition” value was found to be 63%.

For `O=CCc1ccc(Cn2nnc3ccccc32)cc1` [Example 3 (Part D), 4-(benzotriazol-1'-ylmethyl)phenylacetaldehyde], the “% Inhibition” value came to 46%.
